{"source": "ChEMBL document CHEMBL1201862", "about": "“PubChem BioAssay data set” (2004)", "test_in_all_cases": "NCI tumour cell line growth inhibition, 48 h", "key": {"DU-145": {"tested_on": "DU-145"}, "HOP-18": {"tested_on": "HOP-18"}, "HOP-62": {"tested_on": "HOP-62"}, "HOP-92": {"tested_on": "HOP-92"}, "MDA-MB-231": {"tested_on": "MDA-MB-231"}, "MDA-MB-435": {"tested_on": "MDA-MB-435"}, "MOLT-4": {"tested_on": "MOLT-4"}, "NCI-H23": {"tested_on": "NCI-H23"}, "NCI-H522": {"tested_on": "NCI-H522"}, "NCI/ADR-RES": {"tested_on": "NCI/ADR-RES"}, "OVCAR-3": {"tested_on": "OVCAR-3"}, "OVCAR-5": {"tested_on": "OVCAR-5"}, "OVCAR-8": {"tested_on": "OVCAR-8"}, "RXF 393": {"tested_on": "RXF 393"}, "SK-MEL-5": {"tested_on": "SK-MEL-5"}, "SK-OV-3": {"tested_on": "SK-OV-3"}, "SN12C": {"tested_on": "SN12C"}, "SW-620": {"tested_on": "SW-620"}, "TK-10": {"tested_on": "TK-10"}, "UACC-62": {"tested_on": "UACC-62"}}, "note": "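Test compounds were applied to cells in 96-well plates for 48 hours at 5 doses. GI50 = concentration required for 50% inhibition of growth.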 Active and inactive are the calls of the source. Rule as the data show it: active = GI50 up to about 1.1 µM and inactive = higher."}
{"smiles": "O=C(Cn1ccnc1[N+](=O)[O-])N(CCO)CCO", "values": [{"measurement": "GI50", "setting": "DU-145", "value": "> 250 µM (inactive)"}, {"measurement": "GI50", "setting": "HOP-18", "value": "> 1250 µM (inactive)"}, {"measurement": "GI50", "setting": "HOP-62", "value": "> 250 µM (inactive)"}, {"measurement": "GI50", "setting": "HOP-92", "value": "> 1250 µM (inactive)"}, {"measurement": "GI50", "setting": "MDA-MB-231", "value": "> 250 µM (inactive)"}, {"measurement": "GI50", "setting": "MDA-MB-435", "value": "> 250 µM (inactive)"}, {"measurement": "GI50", "setting": "MOLT-4", "value": "> 250 µM (inactive)"}, {"measurement": "GI50", "setting": "NCI-H23", "value": "> 250 µM (inactive)"}, {"measurement": "GI50", "setting": "NCI-H522", "value": "> 250 µM (inactive)"}, {"measurement": "GI50", "setting": "NCI/ADR-RES", "value": "> 250 µM (inactive)"}, {"measurement": "GI50", "setting": "OVCAR-3", "value": "> 250 µM (inactive)"}, {"measurement": "GI50", "setting": "OVCAR-5", "value": "> 250 µM (inactive)"}, {"measurement": "GI50", "setting": "OVCAR-8", "value": "> 250 µM (inactive)"}, {"measurement": "GI50", "setting": "RXF 393", "value": "> 250 µM (inactive)"}, {"measurement": "GI50", "setting": "SK-MEL-5", "value": "> 141 µM (inactive)"}, {"measurement": "GI50", "setting": "SK-OV-3", "value": "> 250 µM (inactive)"}, {"measurement": "GI50", "setting": "SN12C", "value": "> 250 µM (inactive)"}, {"measurement": "GI50", "setting": "SW-620", "value": "> 250 µM (inactive)"}, {"measurement": "GI50", "setting": "TK-10", "value": "> 250 µM (inactive)"}, {"measurement": "GI50", "setting": "UACC-62", "value": "> 250 µM (inactive)"}]}
{"smiles": "COc1cc(C2c3cc4c(cc3[C@@H](Nc3ccc(F)cc3)C3COC(=O)[C@H]23)OCO4)cc(OC)c1O", "note": "(stereo not given in full)", "values": [{"measurement": "GI50", "setting": "DU-145", "value": "0.368 µM (active)"}, {"measurement": "GI50", "setting": "HOP-18", "value": "10.6 µM (inactive)"}, {"measurement": "GI50", "setting": "HOP-62", "value": "0.635 µM (active)"}, {"measurement": "GI50", "setting": "HOP-92", "value": "2.91 µM (inactive)"}, {"measurement": "GI50", "setting": "MDA-MB-231", "value": "4.33 µM (inactive)"}, {"measurement": "GI50", "setting": "MDA-MB-435", "value": "4.17 µM (inactive)"}, {"measurement": "GI50", "setting": "MOLT-4", "value": "0.0535 µM (active)"}, {"measurement": "GI50", "setting": "NCI-H23", "value": "1.3 µM (inactive)"}, {"measurement": "GI50", "setting": "NCI-H522", "value": "2.88 µM (inactive)"}, {"measurement": "GI50", "setting": "NCI/ADR-RES", "value": "3.97 µM (inactive)"}, {"measurement": "GI50", "setting": "OVCAR-3", "value": "5.04 µM (inactive)"}, {"measurement": "GI50", "setting": "OVCAR-5", "value": "5.3 µM (inactive)"}, {"measurement": "GI50", "setting": "OVCAR-8", "value": "2.53 µM (inactive)"}, {"measurement": "GI50", "setting": "RXF 393", "value": "3.12 µM (inactive)"}, {"measurement": "GI50", "setting": "SK-MEL-5", "value": "1.78 µM (inactive)"}, {"measurement": "GI50", "setting": "SK-OV-3", "value": "3.45 µM (inactive)"}, {"measurement": "GI50", "setting": "SN12C", "value": "1.57 µM (inactive)"}, {"measurement": "GI50", "setting": "SW-620", "value": "1.69 µM (inactive)"}, {"measurement": "GI50", "setting": "TK-10", "value": "4.88 µM (inactive)"}, {"measurement": "GI50", "setting": "UACC-62", "value": "0.841 µM (active)"}]}
{"smiles": "NC(=O)/C=C/c1c[nH]c2nccnc12", "values": [{"measurement": "GI50", "setting": "DU-145", "value": "3.44 µM (inactive)"}, {"measurement": "GI50", "setting": "HOP-18", "value": "0.228 µM (active)"}, {"measurement": "GI50", "setting": "HOP-62", "value": "2.94 µM (inactive)"}, {"measurement": "GI50", "setting": "HOP-92", "value": "3.52 µM (inactive)"}, {"measurement": "GI50", "setting": "MDA-MB-231", "value": "3.71 µM (inactive)"}, {"measurement": "GI50", "setting": "MDA-MB-435", "value": "3.59 µM (inactive)"}, {"measurement": "GI50", "setting": "MOLT-4", "value": "0.641 µM (active)"}, {"measurement": "GI50", "setting": "NCI-H23", "value": "0.678 µM (active)"}, {"measurement": "GI50", "setting": "NCI-H522", "value": "7.13 µM (inactive)"}, {"measurement": "GI50", "setting": "NCI/ADR-RES", "value": "2.89 µM (inactive)"}, {"measurement": "GI50", "setting": "OVCAR-3", "value": "2.34 µM (inactive)"}, {"measurement": "GI50", "setting": "OVCAR-5", "value": "0.15 µM (active)"}, {"measurement": "GI50", "setting": "OVCAR-8", "value": "2.86 µM (inactive)"}, {"measurement": "GI50", "setting": "RXF 393", "value": "1.99 µM (inactive)"}, {"measurement": "GI50", "setting": "SK-MEL-5", "value": "2.25 µM (inactive)"}, {"measurement": "GI50", "setting": "SK-OV-3", "value": "3.95 µM (inactive)"}, {"measurement": "GI50", "setting": "SN12C", "value": "1.01 µM (active)"}, {"measurement": "GI50", "setting": "SW-620", "value": "0.891 µM (active)"}, {"measurement": "GI50", "setting": "TK-10", "value": "2.43 µM (inactive)"}, {"measurement": "GI50", "setting": "UACC-62", "value": "2.76 µM (inactive)"}]}
